Laboratory results taken from paper PMC4457528, “Identification of Novel Small Molecule Inhibitors of Oncogenic RET Kinase” (PLoS ONE, 2015).
Where two headings read alike, the source gives them in different places.

How the values were obtained:
[1] = test system: Ba/F3-RET/PTC3 cells; experiment: Growth curves, Ba/F3 cells expressing RET/PTC3; settings: Ba/F3 RET/PTC3, without IL-3
Procedure: Fibroblasts were kept in medium supplemented with 5% fetal calf serum. Human cells were kept in 2% (TPC1), 5% (Nthy-ori-3-1), 20% (TT) or 10% (MZ-CRC-1) fetal calf serum. […] Cells were counted every 1–2 (fibroblasts) or 2–3 (human cell lines) days. Ba/F3 cells were kept in 10% fetal calf serum in 6-well dishes (200,000/well) and counted daily for 4 consecutive days, changing media every 2 days.
Differently from Ba/F3 NCOA4-RET, parental Ba/F3 were grown in the presence of IL3. Data are the mean ± SD of two experiments performed in triplicate.

[2] = target: T1, KinomeScan kinase panel (Homo sapiens, UniProt Q13163); experiment: KinomeScan kinase panel, single concentration 10 µM; type: binding; settings: MEK5, 10 µM; read-out: score (%)
T1 construct: purchased DiscoveRx (KinomeScan)
T1 sequence (Q13163 whole entry): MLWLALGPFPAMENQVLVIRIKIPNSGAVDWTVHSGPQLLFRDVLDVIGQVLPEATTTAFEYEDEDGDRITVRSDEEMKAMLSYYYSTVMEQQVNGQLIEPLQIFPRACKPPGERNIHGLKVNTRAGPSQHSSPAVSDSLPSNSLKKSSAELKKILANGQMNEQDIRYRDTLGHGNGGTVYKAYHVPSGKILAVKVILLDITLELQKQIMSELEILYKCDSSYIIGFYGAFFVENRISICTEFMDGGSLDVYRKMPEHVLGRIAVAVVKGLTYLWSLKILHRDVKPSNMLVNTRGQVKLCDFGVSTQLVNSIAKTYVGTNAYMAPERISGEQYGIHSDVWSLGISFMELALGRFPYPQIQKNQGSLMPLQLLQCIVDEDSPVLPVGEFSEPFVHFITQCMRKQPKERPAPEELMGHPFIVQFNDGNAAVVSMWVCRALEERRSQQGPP

[3] = target: T2, KinomeScan kinase panel (Homo sapiens, UniProt P11802); experiment: as above; type: binding; settings: read-out: score (%)
T2 construct: purchased DiscoveRx (KinomeScan)
T2 sequence (P11802 whole entry): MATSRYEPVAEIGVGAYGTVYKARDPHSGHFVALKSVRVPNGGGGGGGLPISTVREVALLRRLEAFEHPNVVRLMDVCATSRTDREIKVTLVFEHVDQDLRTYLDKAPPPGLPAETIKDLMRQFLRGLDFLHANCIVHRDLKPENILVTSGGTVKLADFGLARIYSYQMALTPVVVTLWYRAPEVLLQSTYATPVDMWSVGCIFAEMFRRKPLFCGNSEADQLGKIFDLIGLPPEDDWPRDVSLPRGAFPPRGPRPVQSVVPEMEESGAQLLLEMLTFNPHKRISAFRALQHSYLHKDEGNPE

[4] = target: T3, KinomeScan kinase panel (Homo sapiens, UniProt P36888, R834Q); experiment: as above; type: binding; settings: FLT3(R834Q), 10 µM; read-out: score (%)
T3 construct: purchased DiscoveRx (KinomeScan)

[5] = target: T4, KinomeScan kinase panel (Homo sapiens, UniProt P42345); experiment: as above; type: binding; settings: MTOR, 10 µM; read-out: score (%)
T4 construct: purchased DiscoveRx (KinomeScan)

[6] = target: T5, KinomeScan kinase panel (Homo sapiens, UniProt Q6XUX3); experiment: as above; type: binding; settings: kinase RIPK5; 10 µM; read-out: score (%)
T5 construct: purchased DiscoveRx (KinomeScan)
T5 sequence (Q6XUX3 whole entry): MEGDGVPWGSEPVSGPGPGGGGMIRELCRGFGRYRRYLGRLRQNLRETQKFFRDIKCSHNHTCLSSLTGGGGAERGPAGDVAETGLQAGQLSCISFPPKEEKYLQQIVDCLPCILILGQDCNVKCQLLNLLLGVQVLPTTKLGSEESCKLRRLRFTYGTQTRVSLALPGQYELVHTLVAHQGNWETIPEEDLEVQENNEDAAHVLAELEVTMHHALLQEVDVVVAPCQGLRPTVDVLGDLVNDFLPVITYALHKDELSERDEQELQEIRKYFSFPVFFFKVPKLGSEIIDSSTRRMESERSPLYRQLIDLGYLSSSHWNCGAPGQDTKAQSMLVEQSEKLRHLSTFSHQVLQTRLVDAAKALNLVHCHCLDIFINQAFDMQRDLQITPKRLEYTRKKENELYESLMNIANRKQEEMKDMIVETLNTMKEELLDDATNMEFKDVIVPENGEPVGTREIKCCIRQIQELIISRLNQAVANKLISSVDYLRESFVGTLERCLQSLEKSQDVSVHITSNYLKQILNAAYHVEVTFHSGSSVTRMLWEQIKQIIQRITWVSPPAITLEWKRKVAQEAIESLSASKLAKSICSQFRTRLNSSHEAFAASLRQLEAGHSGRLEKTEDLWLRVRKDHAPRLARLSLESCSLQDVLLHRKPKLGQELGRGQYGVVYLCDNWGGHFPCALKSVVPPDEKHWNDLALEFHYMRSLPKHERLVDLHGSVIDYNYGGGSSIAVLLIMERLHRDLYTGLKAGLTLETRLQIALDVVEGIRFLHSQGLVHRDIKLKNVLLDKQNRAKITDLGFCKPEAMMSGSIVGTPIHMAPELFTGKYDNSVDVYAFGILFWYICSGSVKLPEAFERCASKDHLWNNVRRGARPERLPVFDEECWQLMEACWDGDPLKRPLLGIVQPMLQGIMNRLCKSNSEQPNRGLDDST

[7] = target: T6, KinomeScan kinase panel (Homo sapiens, UniProt P00533, T790M); experiment: as above; type: binding; settings: EGFR(T790M), 10 µM
T6 construct: purchased DiscoveRx (KinomeScan)

[8] = target: T7, KinomeScan kinase panel (Homo sapiens, UniProt Q9NRH2); experiment: as above; type: binding; settings: kinase SNRK; 10 µM; read-out: score (%)
T7 construct: purchased DiscoveRx (KinomeScan)
T7 sequence (Q9NRH2 whole entry): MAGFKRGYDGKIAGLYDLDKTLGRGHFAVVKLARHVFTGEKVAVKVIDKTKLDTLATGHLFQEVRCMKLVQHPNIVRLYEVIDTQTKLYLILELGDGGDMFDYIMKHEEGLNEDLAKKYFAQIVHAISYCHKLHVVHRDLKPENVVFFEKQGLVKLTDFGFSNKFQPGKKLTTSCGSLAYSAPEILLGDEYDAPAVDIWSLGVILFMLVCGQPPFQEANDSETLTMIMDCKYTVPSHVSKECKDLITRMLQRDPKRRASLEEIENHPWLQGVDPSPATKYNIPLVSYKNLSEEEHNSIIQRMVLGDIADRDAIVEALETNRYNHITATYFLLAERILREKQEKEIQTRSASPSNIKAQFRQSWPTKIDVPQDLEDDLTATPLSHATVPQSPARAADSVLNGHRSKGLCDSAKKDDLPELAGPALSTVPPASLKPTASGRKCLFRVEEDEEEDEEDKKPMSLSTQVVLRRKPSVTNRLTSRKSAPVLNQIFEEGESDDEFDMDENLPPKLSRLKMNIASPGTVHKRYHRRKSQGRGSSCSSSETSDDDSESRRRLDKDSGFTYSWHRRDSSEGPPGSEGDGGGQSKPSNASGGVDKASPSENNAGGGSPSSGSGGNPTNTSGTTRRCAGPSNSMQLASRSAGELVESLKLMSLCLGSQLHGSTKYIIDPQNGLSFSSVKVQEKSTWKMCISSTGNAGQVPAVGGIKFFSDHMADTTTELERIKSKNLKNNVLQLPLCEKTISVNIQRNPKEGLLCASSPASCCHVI

[9] = target: T8, KinomeScan kinase panel (Homo sapiens, UniProt Q96BR1); experiment: as above; type: binding; settings: kinase SGK3; 10 µM; read-out: score (%)
T8 construct: purchased DiscoveRx (KinomeScan)
T8 sequence (Q96BR1 whole entry): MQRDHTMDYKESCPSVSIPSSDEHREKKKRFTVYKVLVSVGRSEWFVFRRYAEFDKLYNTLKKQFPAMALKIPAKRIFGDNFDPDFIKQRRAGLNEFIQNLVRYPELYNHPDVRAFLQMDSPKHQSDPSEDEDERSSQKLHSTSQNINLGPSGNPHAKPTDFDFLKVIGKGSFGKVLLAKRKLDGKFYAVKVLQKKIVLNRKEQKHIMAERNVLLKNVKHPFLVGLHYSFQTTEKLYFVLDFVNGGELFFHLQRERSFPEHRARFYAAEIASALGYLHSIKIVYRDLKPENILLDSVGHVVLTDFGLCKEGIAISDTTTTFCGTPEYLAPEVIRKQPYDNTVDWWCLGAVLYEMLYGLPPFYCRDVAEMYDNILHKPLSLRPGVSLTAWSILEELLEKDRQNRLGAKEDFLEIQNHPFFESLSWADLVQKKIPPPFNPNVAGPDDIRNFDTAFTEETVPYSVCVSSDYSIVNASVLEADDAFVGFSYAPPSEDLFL

[10] = target: T9, KinomeScan kinase panel (Homo sapiens, UniProt P51956); experiment: as above; type: binding; settings: NEK3, 10 µM; read-out: score (%)
T9 construct: purchased DiscoveRx (KinomeScan)
T9 sequence (P51956 whole entry): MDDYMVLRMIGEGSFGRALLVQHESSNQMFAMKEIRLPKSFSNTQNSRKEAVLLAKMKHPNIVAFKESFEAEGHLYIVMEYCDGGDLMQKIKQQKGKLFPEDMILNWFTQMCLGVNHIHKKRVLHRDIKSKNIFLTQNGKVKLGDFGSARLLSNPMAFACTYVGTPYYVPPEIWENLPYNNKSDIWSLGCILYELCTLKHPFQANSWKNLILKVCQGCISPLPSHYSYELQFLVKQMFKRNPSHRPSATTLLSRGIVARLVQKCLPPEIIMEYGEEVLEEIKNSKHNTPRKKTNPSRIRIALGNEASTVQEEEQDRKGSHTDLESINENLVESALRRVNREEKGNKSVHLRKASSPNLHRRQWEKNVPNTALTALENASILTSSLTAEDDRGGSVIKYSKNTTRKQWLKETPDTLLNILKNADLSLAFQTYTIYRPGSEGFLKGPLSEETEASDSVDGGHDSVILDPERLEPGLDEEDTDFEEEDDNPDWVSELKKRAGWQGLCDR

[11] = target: T10, KinomeScan kinase panel (Homo sapiens, UniProt Q9UL54); experiment: as above; type: binding; settings: kinase TAOK2; 10 µM; read-out: score (%)
T10 construct: purchased DiscoveRx (KinomeScan)
T10 sequence (Q9UL54 whole entry): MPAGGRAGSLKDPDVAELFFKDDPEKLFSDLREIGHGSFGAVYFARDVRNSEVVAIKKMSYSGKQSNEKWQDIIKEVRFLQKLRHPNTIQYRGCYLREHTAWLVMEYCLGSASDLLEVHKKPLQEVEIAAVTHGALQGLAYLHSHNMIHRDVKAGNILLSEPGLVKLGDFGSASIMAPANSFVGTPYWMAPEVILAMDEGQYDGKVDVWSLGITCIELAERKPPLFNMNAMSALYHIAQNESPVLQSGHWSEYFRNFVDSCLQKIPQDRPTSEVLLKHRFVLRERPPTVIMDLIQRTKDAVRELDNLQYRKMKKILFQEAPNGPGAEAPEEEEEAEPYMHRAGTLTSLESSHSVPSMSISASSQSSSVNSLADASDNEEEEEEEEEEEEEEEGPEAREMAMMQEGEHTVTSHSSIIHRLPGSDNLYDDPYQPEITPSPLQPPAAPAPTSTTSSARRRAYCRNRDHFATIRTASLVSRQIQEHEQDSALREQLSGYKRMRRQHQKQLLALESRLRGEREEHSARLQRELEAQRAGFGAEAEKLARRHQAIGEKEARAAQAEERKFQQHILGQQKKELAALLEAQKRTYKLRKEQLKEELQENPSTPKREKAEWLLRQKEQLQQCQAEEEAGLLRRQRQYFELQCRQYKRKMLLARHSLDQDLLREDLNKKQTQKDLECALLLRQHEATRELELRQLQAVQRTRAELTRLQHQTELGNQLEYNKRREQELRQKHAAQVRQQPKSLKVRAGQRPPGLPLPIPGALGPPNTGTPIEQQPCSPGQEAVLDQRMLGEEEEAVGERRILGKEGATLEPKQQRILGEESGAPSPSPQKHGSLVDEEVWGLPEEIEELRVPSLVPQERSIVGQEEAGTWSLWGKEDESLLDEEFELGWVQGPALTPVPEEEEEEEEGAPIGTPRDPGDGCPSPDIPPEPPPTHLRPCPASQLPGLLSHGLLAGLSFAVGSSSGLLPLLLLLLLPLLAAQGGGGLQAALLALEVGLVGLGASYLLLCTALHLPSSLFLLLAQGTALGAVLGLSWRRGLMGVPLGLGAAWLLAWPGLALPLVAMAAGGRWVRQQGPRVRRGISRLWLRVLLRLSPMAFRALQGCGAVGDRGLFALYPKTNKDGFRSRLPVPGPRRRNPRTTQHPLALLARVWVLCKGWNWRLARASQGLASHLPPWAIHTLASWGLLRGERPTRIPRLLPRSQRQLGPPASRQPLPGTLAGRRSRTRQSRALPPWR

Row | Compound | effect on RET/PTC3-driven proliferation [1] | remaining binding at 10 µM [2] | remaining binding at 10 µM ([3]; CDK4-cyclinD1, 10 µM) | remaining binding at 10 µM ([3]; CDK4-cyclinD3, 10 µM) | remaining binding at 10 µM [4] | remaining binding at 10 µM [5] | remaining binding at 10 µM [6] | score (%) [7] | remaining binding at 10 µM [8] | remaining binding at 10 µM [9] | remaining binding at 10 µM [10] | remaining binding at 10 µM [11]
1 | CCN1CCN(Cc2ccc(NC(=O)c3ccc(C)c(NC(=O)c4cncc(-c5cccs5)c4)c3)cc2C(F)(F)F)CC1 [ALW-II-41-27] | blunted |  |  |  |  |  |  |  |  |  |  | 
2 | CCN1CCN(Cc2ccc(NC(=O)c3ccc(C)c(C#Cc4cccnc4)c3)cc2C(F)(F)F)CC1 [XMD15-44] |  | 0.4% | 21% | > 30% | 4.2% | > 30% | 27% | nb (Hits values higher than 30% were considered negative (no binding: nb)) | 34% | 6.2% | 53% | 0.15%
